Assay results published in patent publication US20060171944A1, “N-formyl peptide receptor mediation of platelet chemotaxis toward injured cells and activation of immune response” (priority 2002, published 2006).
Square brackets hold non-standard residues; d marks the D form. Ends that are not written are not given here. * marks the point of attachment. Nle = CCCC[C@H](N)C(=O)O; For = O=C*

Assays:
human platelets [1] = assay: Platelet chemotaxis by transwell migration (ChemoTx microplate); assay type: cell-based; details: for chemotaxis of thrombin-activated platelets toward peptide: 10^−6 and 10^−7 M peptide, 10 U thrombin, P<0.001
Protocol: The chemotactic activity of activated and non-activated platelets in response to different concentrations of fMLF by transwell migration (FIG. 4a) was determined. […] Both thrombin-activated and non-activated platelet migration followed a concentration-response curve that was greatest at 10^−6 M fMLF (27.2±12) in the thrombin-activated platelets and 10^−7 M fMLF (11.5±6.5) in the non-activated platelets (FIG. 4a). […] Next the dependence of platelet chemotaxis on the presence of a Formyl group on the peptide was tested. […] Non-activated platelets behaved similarly. Thus, the presence of a Formylgroup was essential for FPR binding, calcium mobilization and platelet chemotaxis.
Platelet migration was assessed using a 96-well ChemoTx® microplate (Neuro Probe, Gaithersburg Md.). For all chemotaxis experiments, different concentrations of stimulants were placed in the bottom wells of the microplate and the filter was positioned (2 μm pore size). The cell suspension was seeded onto the top of the filter (30 μl) and the microplates were incubated for 2 hrs at 37° C. For all chemokinesis experiments, different concentrations of stimulants were placed in the bottom wells of the microplate and the filter was positioned. The cell suspension containing different concentrations of stimulants were placed on the filter (30 μl) in a gradient fashion. After incubation, the lid was removed and the filter was gently wiped with a cell harvester and carefully flushed with media to remove any of the non-migrated cells. The filter was then carefully removed and the migrated cells were counted by light microscopy. Results are expressed as the mean value (±SD) of total migrated cells, in triplicate samples, and are taken from five experiments independent.
Chemotactic responses were distinguished from chemokinetic responses by placing increasing concentrations of fMLF in the upper and lower chambers of the transwell plates (Table 1).
There was no enhanced cell migration when higher concentrations of fMLF were present in the upper wells or with equal concentrations of fMLF in both the upper and lower wells, as would be seen with chemokinesis.
Different concentrations of fMLF were placed in the upper and/or lower wells of the chemotaxis plate; platelets at 10^6 cells/ml were placed on the upper filter. After a 2-hour incubation, the non-migrated cells were removed and the cells that migrated across the filter were counted. The results are expressed as the mean value (±SD) of the migrated cells in at least six separate experiments (n=24). Grey shading indicates wells containing a greater concentration of fMLF in the lower well compared to the upper well. Platelet migration in transwells maintaining a gradient of fMLF between chambers were compared with wells containing equimolar concentrations of fMLF in both chambers (p<0.002, Student's t-test)

human platelets [2] = assay: Intracellular free calcium in fura-2 loaded platelets; assay type: cell-based; details: for calcium signal: thrombin-activated as well as non-activated platelets, 1 U thrombin, 10^−6 M peptide
Protocol: Washed platelets were activated with either 0 U or 1 U thrombin (Sigma) for 10 min at 37° C. Fura-2 loaded platelets were prepared by incubating the platelets, for 45 min with fura-2 acetoxymethyl ester at 37° C. The dye-loaded platelets were washed and resuspended in calcium-free HBSS standard solution. The cells were then transferred into quartz cuvettes (10^9 cells in 2 ml), which were placed in a model MS-III spectrofluorometer (Photon Technologies, Inc.; South Brunswick, N.J.) and continuously stirred at 37° C. Stimulants were added in a 2 μl volume at indicated time points. The ratios of fluorescence at excitation wavelengths 340 and 380 nm and emission wavelength at 510 nm were calculated using FeliX fluorescence analysis software (Photon Technology Instruments; London, Ontario, Canada). Representative traces from at least six independent experiments are shown.

Hep-2 cells = assay: Induction of apoptosis in Hep-2 cells, scored by H-33342/SYTOX staining; assay type: cell-based; details: 1 μM for 5 hours
Protocol: Hep-2-cells were grown in DMEM medium supplemented with 10% FCS. Before each experiment, the cells were washed and the media was replaced with serum-free DMEM. After adaptation to this medium, cells were exposed to repeated freeze/thaw or UV radiation (1000J) in a UV Stratalinker UV oven (Stratagene) to induce necrosis. To induce apoptosis, cells were treated with 1 μM staurosporine (STS) for 5 hours. After the treatments, the cells were placed into a tissue culture incubator overnight. The supernatant was collected and used for experimentation and the cells were stained with a mixture of the membrane permeant dye H-33342 (500 ng/ml) and the membrane impermeant dye SYTOX (500 nM) (Molecular Probes; Eugene, Oreg.). Necrotic (damaged plasma membrane; non-condensed nuclei) and apoptotic (intact plasma membrane; characteristically condensed or fragmented nuclei) cells were scored. Necrotic cells after UV radiation=84%. Apoptotic cells after STS treatment=80%.

[3] = biological target: T1, N-formyl peptide receptors on human platelets (Homo sapiens, UniProt P21462); assay: Flow cytometry of fluorescein-conjugated peptide binding to human platelets; details: 10^−7 M peptide; platelets treated with 0, 0.001, 0.1 or 10 U thrombin
T1 construct: Platelet-rich plasma was prepared from whole blood by differential centrifugation; endogenous in cells
T1 sequence (P21462 1-350): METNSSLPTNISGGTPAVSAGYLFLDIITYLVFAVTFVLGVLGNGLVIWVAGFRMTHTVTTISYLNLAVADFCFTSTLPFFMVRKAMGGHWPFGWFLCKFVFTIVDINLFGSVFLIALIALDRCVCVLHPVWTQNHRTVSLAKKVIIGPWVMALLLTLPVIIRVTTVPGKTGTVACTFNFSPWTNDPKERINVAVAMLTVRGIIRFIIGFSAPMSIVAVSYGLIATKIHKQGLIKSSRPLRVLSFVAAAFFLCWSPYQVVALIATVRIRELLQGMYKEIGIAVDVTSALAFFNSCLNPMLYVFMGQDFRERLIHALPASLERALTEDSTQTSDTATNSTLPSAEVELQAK
Protocol: (§1) To test whether human platelets express N-formyl peptide receptors, the binding of identical fluorescein-conjugated peptides to human platelets was evaluated by flow cytometry, where one contained a formyl group N-formyl-Nle-Leu-Phe-Nle-Tyr-Lys (fNLFNYK-fl) (SEQ ID NO:1), and the other without a formyl group Nle-Leu-Phe-Nle-Tyr-Lys (NLFNYK-fl) (SEQ ID NO:2). […] However, with permeabilization of non-activated platelets, fluorescein staining of granule-like particles was detected within the interior of platelets (FIG. 1d). […] Differential interference contrast (DIC) imaging (FIG. 1g insert) confirmed the presence of platelets.
Platelet-rich plasma was prepared from whole blood by differential centrifugation at 800×g for 5 min at 22° C. The top two-thirds of the platelet-rich plasma was removed and washed in PBS containing 1% fetal bovine serum. Washed platelets were activated with 0, 0.001, 0.1 or 10 U thrombin (Sigma, St. Louis, Mo.) for 10 min at 37° C. The platelets were then washed and incubated with 10^−7 M fluorescein conjugated N-formyl peptide; fNLFNYK-fl (SEQ ID NO:1; Molecular Probes, Eugene, Oreg.) or 10^−7 M fluorescein conjugated non-N-formylated peptide; NLFNYK-fl (SEQ ID NO:2; New England Peptide, Fitchburg, Mass.) for 30 min at room temperature. […] Samples were analyzed on a Becton Dickinson (Franklin Lakes, N.J.) FASCcalibur/CELLQuest system. […]

[4] = biological target: T1, N-formyl peptide receptors on human platelets; assay: Confocal microscopy of fluorescein-conjugated peptide binding to human platelets; details: 10^−6 M peptide; thrombin-activated platelets
Protocol: as §1
Platelet-rich plasma was prepared as mentioned above. Washed platelets were activated with either 1 or 10 U thrombin (Sigma) for 10 min at 37° C. The platelets were washed two times and fixed with 4% paraformaldehyde for 20 min at 4° C. The platelets were then washed and permeablized with 100% methanol for 15 min at 4° C. […] The platelets were washed two times, spun onto cover slips, and mounted with ProLong® Antifade Kit (Molecular Probes). Confocal images were collected on a Leica TCS-NT/SP confocal microscope (Leica Microsystems, Exton, Pa.) using a 100-x oil emersion objective NA 1.4, zoom 2. Representative images from three independent experiments are shown (FIG. 2).

MEG-01 cells = assay: RT-PCR of FPR and FPRL-1 in MEG-01 cells; assay type: cell-based, human; details: 10^−7 M PMA for 5 days
Protocol: To further confirm that platelets express human N-formyl peptide receptors (FPR), RT-PCR of RNA harvested from the megakaryocytic cell line MEG-01 was performed. […] Treatment of MEG-01 cells with phorbol 12-myristate 13-acetate (PMA) induced differentiation with production of platelet-like structures^36. RNA harvested from HL60 cells, a promyelocytic cell line that expresses both FPR and FPRL 1, is shown in lane 1 (RT included), lane 2 (RT excluded), and lane 3 (RNA excluded) (FIG. 2a). […] RT-PCR generated bands were confirmed to encode the FPR or FPRL1 by sequence analysis. FPR protein expression in platelets was shown by immunoblotting with FPR specific antibody.
Total RNA was isolated using Ultraspec RNA isolation system (Biotecx Laboratories Inc., Houston Tes.), according to the manufacturer's protocol. To confirm purity of the product RNA, absorption ratios at 260/280 nm were determined to be […] for all samples. The samples were adjusted to 200 ng/μl for reverse transcription and PCR according to absorption at 260 nm. Total RNA was reversed-transcribed using Thermoscript RT (GibcoBRL, Gaithersburg, Md.). Conditions for PCR amplification of the resulting first-strand DNA template involved preheating a mixture of Taq DNA polymerase (5 U/ml) (GibcoBRL), primers, cDNA, and PCR components to 95° C. for 5 min before amplification. […]

## N-formyl-methionine-leucine-phenalanine [fMLF]
Human platelets [1]; fMLF in upper and/or lower wells, 2-hour incubation
  checkerboard analysis: chemotaxis versus chemokinesis: directed migration and not chemokinesis
Human platelets [1]; non-activated platelets, 10^−7 M fMLF (greatest response)
  platelet migration, mean value (±SD) of migrated cells: 11.5±6.5
Human platelets [1]; thrombin-activated platelets, 10^−6 M fMLF (greatest response)
  platelet migration, mean value (±SD) of migrated cells: 27.2±12
Human platelets [2]; pretreatment with thrombin (1 U), then fMLF stimulation
  calcium signal after pretreatment with thrombin: greater fluorescent signal
Human platelets [2]
  calcium signal: induced a calcium signal

## CN[C@@H]1C[C@H]2O[C@@](C)([C@@H]1OC)n1c3ccccc3c3c4c(c5c6ccccc6n2c5c31)C(=O)NC4 [STS, staurosporine]
Hep-2 cells
  apoptotic cells after treatment: 80%
Human platelets [2]; platelets incubated with STS directly
  platelet calcium flux response to thrombin after incubation with STS: capable of subsequent calcium flux responses to thrombin

## MLF: the non formyl peptide, MLF
Human platelets [2]
  calcium signal: failed to elicit a calcium signal

## For-[Nle]LF[Nle]YK [fNLFNYK-fl]
[3]
  binding of fluorescein-conjugated peptide to platelets by flow cytometry: increased binding with increased thrombin activation
Human platelets [1]
  chemotaxis of thrombin-activated platelets toward peptide: significantly more migration
[4]
  binding of fluorescein-conjugated peptide to platelets by confocal microscopy: upregulation of external N-formyl peptide binding with platelet activation

## Nle-Leu-Phe-Nle-Tyr-Lys ([Nle]LF[Nle]YK-fluorescein) [NLFNYK-fl, fluorescein conjugated non-N-formylated peptide (New England Peptide)]
[3]
  binding of fluorescein-conjugated peptide to platelets by flow cytometry: non-specific and did not increase with thrombin activation
Human platelets [1]
  chemotaxis of thrombin-activated platelets toward peptide: failed to induce significant chemotaxis
[4]
  binding of fluorescein-conjugated peptide to platelets by confocal microscopy: no binding

## CCCCCCCCCCCCCC(=O)O[C@@H]1[C@@H](C)[C@@]2(O)[C@@H](C=C(CO)C[C@]3(O)C(=O)C(C)=C[C@@H]23)[C@@H]2C(C)(C)[C@]12OC(C)=O [PMA, phorbol 12-myristate 13-acetate]
MEG-01 cells
  FPR and FPRL-1 mRNA expression after induced megakaryocyte differentiation: transactivation of the genes encoding both the FPR and FPRL-1

## thrombin
Human platelets [2]
  calcium signal: induced a calcium signal
